B1: yeast Pex13-V5 (expressed by its endogenous promotor) (other, yeast (S. cerevisiae), UniProt P80667 1-386, looked up)
chain: MSSTAVPRPKPWETSASLEEPQRNAQSLSAMMTSNQQDSRPTEESNNSNSASESAPEVLPRPAALNSSGTYGESNTIPGIYGNSNYGIPYDNNPYSMNSIYGNSIGRYGYGGSYYGNNYGSFYGGGYGAGAGYGMNNGSGLGESTKATFQLIESLIGAVTGFAQMLESTYMATHNSFFTMISVAEQFGNLKEMLGSFFGIFAIMKFLKKILYRATKGRLGIPPKNFAESEGSKNKLIEDFQKFNDSGTINSNEKATRRKISWKPLLFFLMAVFGFPYLLNKFITKLQTSGTIRASQGNGSEPIDPSKLEFARALYDFVPENPEMEVALKKGDLMAILSKKDPLGRDSDWWKVRTKNGNIGYIPYNYIEIIKRRKKIEHVDDETRTH
notes: not shown: V5 tag

Assay [1] relates to PEX3 deficient (PEX3−) fibroblast cell line derived from a patient with Zellweger Syndrome. Kind of assay: Live cell fluorescent imaging of peroxin-GFP localization with ATAD1 overexpression. It counts as cell-based, human.
Assay [2] has as its system PEX3− patient fibroblasts. Kind of assay: Unbiased whole cell lipidomics. It is filed as cell-based, human. To be noted: patient cell line with overexpression of ATAD1. As to the method: (§1) Representative images of the most observed mitochondrial morphology are shown. […] OCR (pmol/min/norm.unit) for cWT (wild-type), cWT+ATAD1 (wild-type expressing ATAD1) PEX3− (patient), PEX3−+ATAD1 (PEX3− expressing ATAD1), cWT-ATAD1 (wildtype with ATAD1 deletion), PEX3−ATAD1 (patient with ATAD1 deletion) cells plotted against time (XF96e Extracellular Flux Analyzer, Mito-Stress-Test.) Oligomycin A (1 μM), 0.15 μM FCCP and 1 μM rotenone+1 μM antimycin A (final concentrations) were sequentially delivered to the XF96e assay medium through injection ports in the sensor cartridge. n=2 (4+4=8 technical replicates). […] Statistical significance (Welch's test), p values are indicated as: ns (not significant), * p≤0.05, ** p≤0.01, *** p≤0.001, **** p≤0.0001. […] Statistical significance (Welch's test), p values are indicated as: ns (not significant), * p≤0.05, ** p≤0.01, *** p≤0.001, **** p≤0.0001. FIG. 5E show a bar graph representation of calculated respiratory spare capacity (=uncoupled respiration minus basal respiration) of cWT (wild-type), cWT+ATAD1 (wild-type expressing ATAD1) PEX3− (patient), PEX3−+ATAD1 (PEX3− expressing ATAD1), cWT-ATAD1 (wildtype with ATAD1 deletion), PEX3−ATAD1 (patient with ATAD1 deletion). Statistical significance (Welch's test), p values are indicated as: ns (not significant), * p≤0.05, ** p≤0.01, *** p≤0.001, **** p≤0.0001.
To complement the characterization with other readouts relevant to reflect important mitochondrial function, unbiased whole cell lipidomics was performed. […] Another readout of flourishing mitochondrial metabolism is the capacity of mitochondria to import […] phosphatidylserines (PSs) into phosphatidylethanolamines (PEs). […] The class of phospho-ether lipids (plasmalogens), precursors to myelin, seems to be unaffected (FIG. 5H).

Assay [3] has as its system PEX3− patient fibroblasts. Kind of assay: Electron microscopy of mitochondrial morphology. It counts as cell-based, human. As to the method:
Representative images of the most observed mitochondrial morphology are shown. […] OCR (pmol/min/norm.unit) for cWT (wild-type), cWT+ATAD1 (wild-type expressing ATAD1) PEX3− (patient), PEX3−+ATAD1 (PEX3− expressing ATAD1), cWT-ATAD1 (wildtype with ATAD1 deletion), PEX3−ATAD1 (patient with ATAD1 deletion) cells plotted against time (XF96e Extracellular Flux Analyzer, Mito-Stress-Test.) Oligomycin A (1 μM), 0.15 μM FCCP and 1 μM rotenone+1 μM antimycin A (final concentrations) were sequentially delivered to the XF96e assay medium through injection ports in the sensor cartridge. n=2 (4+4=8 technical replicates). […] Statistical significance (Welch's test), p values are indicated as: ns (not significant), * p≤0.05, ** p≤0.01, *** p≤0.001, **** p≤0.0001. […] Statistical significance (Welch's test), p values are indicated as: ns (not significant), * p≤0.05, ** p≤0.01, *** p≤0.001, **** p≤0.0001. FIG. 5E show a bar graph representation of calculated respiratory spare capacity (=uncoupled respiration minus basal respiration) of cWT (wild-type), cWT+ATAD1 (wild-type expressing ATAD1) PEX3− (patient), PEX3−+ATAD1 (PEX3− expressing ATAD1), cWT-ATAD1 (wildtype with ATAD1 deletion), PEX3−ATAD1 (patient with ATAD1 deletion). Statistical significance (Welch's test), p values are indicated as: ns (not significant), * p≤0.05, ** p≤0.01, *** p≤0.001, **** p≤0.0001. […]

Assay [4] has as its system PEX3− patient fibroblasts. Kind of assay: Seahorse XF 96e Flux analyzer respiration (Mito-Stress-Test). It counts as cell-based, human. How it is done: as §1
Therefore, it was tested whether removal of the accumulated peroxins is able to restore mitochondrial respiration. To test the direct dependence of this phenotype with the expression levels of ATAD1, additional cell lines with genetic deletion of ATAD1 was generated. A Seahorse XF 96e Flux analyzer was used to measure respiration (FIG. 5B). A significant lower basal rate of respiration in the PEX3^− cell line was observed compared to the complemented wild-type cWT (FIGS. 5B, 5C). […] In the case that the expression level of ATAD1 is sufficient to cause the phenotype, it would be expected that a much more severe phenotype in the patient with an additional ATAD1 deletion. […]

The target of assay [5] is T1, yeast Pex25 (yeast (S. cerevisiae), UniProt Q02969 1-394).
T1 sequence (looked up): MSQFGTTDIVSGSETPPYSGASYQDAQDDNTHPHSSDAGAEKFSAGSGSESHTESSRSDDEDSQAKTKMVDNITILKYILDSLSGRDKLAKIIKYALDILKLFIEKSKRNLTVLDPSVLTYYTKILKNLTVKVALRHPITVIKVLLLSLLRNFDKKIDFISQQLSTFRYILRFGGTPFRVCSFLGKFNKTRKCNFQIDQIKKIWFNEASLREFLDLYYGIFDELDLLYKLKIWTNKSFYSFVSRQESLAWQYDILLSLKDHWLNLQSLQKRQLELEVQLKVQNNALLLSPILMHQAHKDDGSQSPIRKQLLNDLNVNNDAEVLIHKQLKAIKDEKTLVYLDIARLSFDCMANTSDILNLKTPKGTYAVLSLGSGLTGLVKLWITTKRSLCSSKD
Kind of assay: BN-PAGE of digitonin-solubilised yeast mitochondrial membranes with complexome profiling (co-migration in a 150-180 kDa subcomplex).

Assay [6] concerns the target B1. Kind of assay: BN-PAGE of digitonin-solubilised yeast mitochondrial membranes with complexome profiling (co-migration). How it is done: Gel was transferred to PVDF membrane and immunoblotted for PEX13^V5 (V5). […] Left panel represents the protein abundance in the wild-type, middle panel in pex19Δ and the right panel in pex19Δmsp1Δ.
Some peroxisomal matrix proteins were detected that have never been reported to be localized to the mitochondria before (FIG. 2 and FIG. 3A (summary cartoon)). Therefore, it was tested whether the enrichment of peroxins on mitochondria is a random accumulation or a structured event.

In assay [7] the target is B1. Kind of assay: BN-PAGE of digitonin-solubilised yeast mitochondrial membranes with complexome profiling (co-migration in a 150-180 kDa subcomplex).

Consider four molecules from patent US20220257725A1, “COMPOSITIONS AND METHODS FOR TREATING PEROXISOMAL BIOGENESIS DISORDERS” (University of Utah Research Foundation, priority 2019, published 2022).

For the molecule “ATAD1: human AAA-ATPase acting in mitochondrial protein quality control; overexpressed in patient fibroblasts”, the PEX13-GFP localization entry in assay [1] (PEX3−ATAD+ cells (ATAD1 overexpressed), Mitotracker far red counterstain) was “not stabilized in the mitochondrial outer membrane”. In addition, the PEX12-GFP distribution entry in assay [1] (PEX12-GFP transiently expressed, ATAD1 overexpressing patient cell line, compared with PEX13-GFP result) is listed as “very similar distribution with a slightly milder effect”. In assay [2], the Cardiolipin levels result is reported as “normalizes to wild-type levels”, the “Phosphatidylethanolamine (PE) levels” value is recorded as “slightly higher values than in wild-type” and the “Phospho-ether lipids (plasmalogens)” value is on record as “unaffected”. Also, in assay [3] (PEX3−ATAD+ cells, patient >80% type 2, wild-type about 80% types 1 and 3), the “Share accounted as type 3 (mitochondria with fewer cristae)” value is “about 70%”. For the same molecule, in assay [3] (patient cell line overexpressing ATAD1, electron microscopy), the “Mitochondrial morphology (electron density, cristae)” value is “electron density recovers and cristae formation is partially detected”. The “Mitochondrial spare capacity (uncoupled minus basal respiration)” value in assay [4] (PEX3−ATAD+) is recorded as “recovered the mitochondrial spare capacity”. The Uncoupled respiration entry in assay [4] (PEX3−ATAD+ versus cWT, FCCP 0.15 μM) is “normalized to wild-type respiration”. Moreover, the Basal mitochondrial respiration entry in assay [4] (PEX3−ATAD+ versus cWT, OCR) is listed as “restored back to wild-type level”.
In the case of B1, the binding result in assay [5] is on record as “binds”.

B2: yeast Pex14 (other, yeast (S. cerevisiae), UniProt P53112 2-341, looked up)
chain: SDVVSKDRKALFDSAVSFLKDESIKDAPLLKKIEFLKSKGLTEKEIEIAMKEPKKDGIVGDEVSKKIGSTENRASQDMYLYEAMPPTLPHRDWKDYFVMATATAGLLYGAYEVTRRYVIPNILPEAKSKLEGDKKEIDDQFSKIDTVLNAIEAEQAEFRKKESETLKELSDTIAELKQALVQTTRSREKIEDEFRIVKLEVVNMQNTIDKFVSDNDGMQELNNIQKEMESLKSLMNNRMESGNAQDNRLFSISPNGIPGIDTIPSASEILAKMGMQEESDKEKENGSDANKDDNAVPAWKKAREQTIDSNASIPEWQKNTAANEISVPDWQNGQVEDSIP
As for B2, the binding result in assay [6] is “binds”.

B3: yeast Pex11 (other, yeast (S. cerevisiae), UniProt Q12462 2-236, looked up)
chain: VCDTLVYHPSVTRFVKFLDGSAGREKVLRLLQYLARFLAVQNSSLLARQLQAQFTTVRKFLRFLKPLNHLQAAAKFYDNKLASDNVVRVCNVLKNIFFAAYLSLDQVNLLRILKVIPVTVLTGKKIPRWSNWCWLFGLLSGLAMDLRKIQTSHAQIAAFVKAKSQSQGDEHEDHKKVLGKAYQDRYTALRRLFWDAADSFIVLNNLGYLSSNEEYVALSGVVTSILGMQDMWKAT
As to B3, the binding result in assay [7] was “binds”.
